The data set in a line: method code SF-AS, from DOI: 10.1080/02772240109358997.

For `CCOC(=O)CC(C(=O)OC)S(=O)(=O)c1ccc([N+](=O)[O-])cc1` (stereo not drawn), the log partition coefficient (logP) (as a rule, the decadic logarithm of the partition coefficient of the neutral form, usually between octanol and water) came to 1.4.

Regarding `COC(=O)C(=Cc1ccccc1)S(=O)(=O)c1ccc([N+](=O)[O-])cc1`, the logP was 2.9.

Compound `CC(C)OC(=O)C(=Cc1ccccc1)S(=O)(=O)c1ccc(Cl)cc1` yielded a logP of 4.18.

Compound `CC(C(=O)OC1CCCCC1)S(=O)(=O)c1ccc([N+](=O)[O-])cc1` (stereo not drawn) yielded a lipophilicity (logP) of 2.82.

The compound `COC(=O)C(C)S(=O)(=O)c1ccc([N+](=O)[O-])cc1` (stereo not drawn) gave a logP of 1.06.

`CCOC(=O)CC(CC(=O)OCC)(C(=O)OC(C)C)S(=O)(=O)c1ccc([N+](=O)[O-])cc1` came in with a logP of 3.56.

Turning to `CCOC(=O)C(C)(c1cccc2ccccc12)S(=O)(=O)c1ccc([N+](=O)[O-])cc1` (stereo not drawn), the logP is 4.4.

The compound `CC(C)OC(=O)CC(C(=O)OC(C)C)S(=O)(=O)c1ccc([N+](=O)[O-])cc1` (stereo not drawn) displayed a logP of 2.18.

As for `CC(C)OC(=O)C(=Cc1ccccc1)S(=O)(=O)c1ccc([N+](=O)[O-])cc1`, the logP stood at 3.62.

Consider `CCC(CC)(C(=O)OC)S(=O)(=O)c1ccc([N+](=O)[O-])cc1`, for which the logP was 2.24.

For the compound `CCCCC(CCCC)(C(=O)OC(C)C)S(=O)(=O)c1ccc([N+](=O)[O-])cc1`, the lipophilicity (logP) worked out at 4.06.

On to `CCOC(=O)C(Cc1ccccc1)(Cc1ccccc1)S(=O)(=O)c1ccc([N+](=O)[O-])cc1`, for which the logP came to 3.4.

`CCOC(=O)C(=Cc1ccccc1)S(=O)(=O)c1ccc([N+](=O)[O-])cc1` returned a lipophilicity (logP) of 3.2.

With `COC(=O)C(C)(C)S(=O)(=O)c1ccc([N+](=O)[O-])cc1`, the logP stood at 1.38.

In turn, `C=CCC(C)(C(=O)OCC)S(=O)(=O)c1ccc([N+](=O)[O-])cc1` (stereo not drawn) registered a lipophilicity (logP) of 2.3.

Compound `Cc1ccc(S(=O)(=O)C(=Cc2ccccc2)C(=O)OC(C)C)cc1` gave a logP of 3.92.

In the case of `CCCCC(CCCC)(C(=O)OCC)S(=O)(=O)c1ccc([N+](=O)[O-])cc1`, the logP came to 3.81.

As to `CC(C)COC(=O)C(=Cc1ccccc1)S(=O)(=O)c1ccc([N+](=O)[O-])cc1`, the logP was 3.68.

(Values after the SangsterLogP compilation.)
